In general, IC50 refers to the concentration that inhibits the measured activity by half. By EC50 is commonly meant the concentration needed to bring the measured effect to its halfway point. The AC50 is the midpoint of the concentration-response curve, whichever way the signal moves. What is called CC50 is the concentration at which the toxic effect on the cells reaches its halfway point. Low values mean harm at low concentration, high ones better tolerance by the cells.

Activity calls are given as the source filed them. Bounds are passed on as bounds.

The results in this text go back to ChEMBL document CHEMBL1201862, “PubChem BioAssay data set” (2004).

In assay [1] the target is T1, Alkaline phosphatase, tissue-nonspecific isozyme (Homo sapiens, UniProt P05186).
T1 sequence (P05186 whole entry): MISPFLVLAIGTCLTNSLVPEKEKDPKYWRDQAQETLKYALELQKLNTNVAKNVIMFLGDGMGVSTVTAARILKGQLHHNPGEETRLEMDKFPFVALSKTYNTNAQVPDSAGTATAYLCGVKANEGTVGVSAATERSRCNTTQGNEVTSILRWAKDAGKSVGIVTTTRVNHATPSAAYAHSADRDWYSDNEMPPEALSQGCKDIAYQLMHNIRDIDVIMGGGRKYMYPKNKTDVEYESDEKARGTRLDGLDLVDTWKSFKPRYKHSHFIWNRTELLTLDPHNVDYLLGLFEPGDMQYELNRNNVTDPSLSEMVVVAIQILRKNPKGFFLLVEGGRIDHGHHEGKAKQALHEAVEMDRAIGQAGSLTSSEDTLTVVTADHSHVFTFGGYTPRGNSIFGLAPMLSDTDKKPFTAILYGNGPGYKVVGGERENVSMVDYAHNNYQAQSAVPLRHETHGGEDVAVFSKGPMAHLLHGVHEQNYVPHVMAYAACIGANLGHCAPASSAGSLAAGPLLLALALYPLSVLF
The assay can be described thus: TNAP enzyme inhibition by screening hits, dose response, selectivity assay for mouse IAP inhibitor project, biochemical, human TNAP, uHTS hits (AID 488906). The assay is classed as functional.

Assay [2] has as its target Intestinal-type alkaline phosphatase (Homo sapiens, UniProt P09923). The experiment in a line: inhibition of human intestinal alkaline phosphatase – biochemical, dose response (AID 488876). The class given is functional.
Assay [3] addresses Intestinal-type alkaline phosphatase (Mus musculus, UniProt P24822). The experiment in a line: PubChem AID 488785. The assay is classed as functional.
For assay [4], the target named is Peroxisome proliferator-activated receptor gamma/Nuclear receptor coactivator 1 (Homo sapiens, UniProt P37231). The experiment in a line: TR-FRET dose response biochemical High Throughput Screening assay for agonists of the steroid receptor coactivator 1 (SRC-1) recruitment by the peroxisome proliferator-activated receptor gamma (PPAR gamma): non-selective agonists. [Related pubchem assays (depositor defined):AID1300, AID1808, AID504735, AID631]. The assay is classed as protein assay. Background: Time-resolved FRET reads energy transfer from a long-lived donor to a nearby acceptor.

Assay [5] can be described thus: non-specific cell cytotoxicity, dose response, cytotoxicity control for PAX8 inhibitor project, plate reader, dry powder samples (AID 743021). The class given is functional, cell-based.
Assay [6] can be described thus: HepG2 cell cytotoxicity, dose response, cytotoxicity control for Shn3 inhibitor project, CellTiter-Glo, cherry-picked (AID 624134). The class given is functional, cell-based. A general note: In ATP-based viability assays light output follows the ATP content of the culture.
For assay [7], the system named is HeLa. The assay can be described thus: Cytotoxicity counterscreen assay for transcriptional activators of heat shock protein 70 (Hsp70). [Related pubchem assays: 1203, 1252 ]. The class given is functional. Particulars: Homo sapiens. In general terms: Counterscreens check selectivity or assay interference.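 Note: cells exposed to compound for 16 hours before readout.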
For assay [8], the target named is Peroxisome proliferator-activated receptor gamma/Nuclear receptor coactivator 2 (Homo sapiens, UniProt P37231). The experiment in a line: TR-FRET dose response biochemical High Throughput Screening assay for agonists of the steroid receptor coactivator 2 (SRC-2) recruitment by the peroxisome proliferator-activated receptor gamma (PPAR gamma): non-selective agonists. [Related pubchem assays: 1297, 1032 ]. The assay is classed as functional.

A short description of assay [9]: control 3'UTR Renilla luciferase suppression, dose response, counter-screen for Shn3 inhibitor project, cell-based, Clone20-Shn3RL, cherry-picked (AID 624133). The class given is functional.
The target of assay [10] is Peroxisome proliferator-activated receptor gamma/Nuclear receptor coactivator 3 (Homo sapiens, UniProt P37231). The experiment in a line: TR-FRET dose response biochemical High Throughput Screening assay for agonists of the steroid receptor coactivator 3 (SRC-3) recruitment by the peroxisome proliferator-activated receptor gamma (PPAR gamma): non-selective agonists. [Related pubchem assays: 1301 (Confirmation screen.), 1048 (Primary screen.)]. The assay is classed as functional.

The nature of assay [11]: Shn3 3'UTR reporter inhibitors, dose response, cell-based, Clone20 osteoblasts, firefly luciferase, cherry-picked (AID 624132).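 Note: firefly luciferase luminescence from reporter carrying the Shn3 3'UTR in osteoblasts.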 The class given is functional.
For assay [12], the target named is Paired box protein Pax-8 (Homo sapiens, UniProt Q06710). The experiment in a line: inhibitors of PAX8-driven TPO luciferase reporter, dose response, RMG-I cells, cherry-pick (AID 687027).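 Note: luciferase reporter driven by Pax8 target thyroperoxidase promoter measured by SteadyGlo luminescence.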 The class given is functional, cell-based.
Assay [13] concerns the target T2, Microphthalmia-associated transcription factor (Homo sapiens, UniProt O75030).
T2 sequence (O75030 whole entry): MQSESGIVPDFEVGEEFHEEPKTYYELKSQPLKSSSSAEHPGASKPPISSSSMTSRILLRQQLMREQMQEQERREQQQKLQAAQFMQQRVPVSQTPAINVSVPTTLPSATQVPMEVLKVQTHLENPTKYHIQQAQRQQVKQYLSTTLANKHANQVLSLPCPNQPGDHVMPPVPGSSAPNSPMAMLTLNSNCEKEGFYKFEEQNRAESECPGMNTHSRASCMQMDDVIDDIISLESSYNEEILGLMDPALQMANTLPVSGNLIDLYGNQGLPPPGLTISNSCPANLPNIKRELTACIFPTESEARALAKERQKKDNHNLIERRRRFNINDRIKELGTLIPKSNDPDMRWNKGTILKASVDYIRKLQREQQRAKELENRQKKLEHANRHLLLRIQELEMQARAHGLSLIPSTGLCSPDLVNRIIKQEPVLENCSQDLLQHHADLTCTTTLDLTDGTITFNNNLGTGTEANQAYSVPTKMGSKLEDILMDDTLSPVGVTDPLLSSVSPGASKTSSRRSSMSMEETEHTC
The assay can be described thus: TRPM1 promoter luciferase signal decrease, dose response, MITF inhibitor project, cell-based, SK-MEL-5, cherry-picked, set 3 (AID 493073).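 Note: SK-MEL-5 melanoma cells with luciferase driven by the MITF target TRPM1 promoter.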 The class given is functional.

Assay [14] is described as follows: growth suppression of PTEN-null colon cells, dose response, cell-based, HCT116 PTEN knockout (AID 1047).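 Note: HCT116 colon tumor cells with PTEN knocked out; cells exposed to compound for 60 hours before readout; potency for loss of cell viability measured by luminescence.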 The assay is classed as functional.
Assay [15] can be described thus: growth suppression of beta-catenin-knockout colon cells, dose response, cell-based, HCT116, human colon tumor (AID 1045).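 Note: HCT116 colon tumor cells with beta catenin knocked out; cells exposed to compound for 60 hours.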 The assay is classed as functional.
Assay [16] has as its system A-375. The experiment in a line: MITF: Counter assay: A375 proliferation Measured in Cell-Based System Using Plate Reader - 2084-03_Inhibitor_Dose_DryPowder_Activity. [Related pubchem assays (depositor defined):AID488944]. Particulars: Homo sapiens. The assay is classed as functional.
The test system of assay [17] is Streptococcus sp. 'group A'. The assay can be described thus: growth inhibition of control SK(-) GAS strain, dose response, counter-screen for streptokinase expression inhibitor project, luminescence, kanamycin, BacTiterGlo, confirmation (AID 1900). The assay is classed as functional, organism-based.
The target in assay [18] is T3, Streptokinase A (Streptococcus pyogenes serotype M1, UniProt P10520).
T3 sequence (P10520 whole entry): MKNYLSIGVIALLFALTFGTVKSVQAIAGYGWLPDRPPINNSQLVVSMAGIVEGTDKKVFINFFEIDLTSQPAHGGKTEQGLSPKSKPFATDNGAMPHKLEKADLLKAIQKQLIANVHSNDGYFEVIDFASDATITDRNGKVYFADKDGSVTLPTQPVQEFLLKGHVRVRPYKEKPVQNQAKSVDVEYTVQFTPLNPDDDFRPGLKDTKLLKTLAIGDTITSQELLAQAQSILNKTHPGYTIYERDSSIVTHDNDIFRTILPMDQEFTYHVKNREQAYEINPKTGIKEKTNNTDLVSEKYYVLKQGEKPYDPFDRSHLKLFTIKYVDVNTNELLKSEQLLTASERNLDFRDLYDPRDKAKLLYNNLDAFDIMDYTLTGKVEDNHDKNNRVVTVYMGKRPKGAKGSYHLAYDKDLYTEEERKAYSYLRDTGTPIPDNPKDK
The assay can be described thus: S. pyogenes streptokinase expression inhibitors, potency, dose response, plasminogen activation absorbance, OD405 (AID 1914).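 Note: secreted streptokinase activity via plasminogen activation per viability signal from cell pellet.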 The assay is classed as functional, Streptococcus pyogenes M1 GAS.

The subject of assay [19] is Streptococcus. The assay can be described thus: Group A Streptococcus viability loss, dose response, counter-screen for streptokinase expression inhibitor project, luminescence, BacTiterGlo (AID 1915).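 Note: potency for reduction of bacterial viability or growth.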 The assay is classed as functional, organism-based.
A short description of assay [20]: cytotoxicity toward DRD oncogenic fibroblasts, dose response, cell-based, non-viral oncogenic, luminescence (AID 1934). The class given is functional. Particulars: Homo sapiens.
Assay [21] concerns the target Glucose-6-phosphate 1-dehydrogenase (Homo sapiens, UniProt P11413). The assay can be described thus: human G6PD enzyme inhibitors, dose response, selectivity assay for P. falciparum G6PD inhibitor project, biochemical, fluorescence (AID 504792). The class given is functional.
A short description of assay [22]: cytotoxicity in HEK-293T cells, dose response, cytotoxicity control for TCR NF-kB inhibitor project, luminescence, T-cell screen hits (AID 489026).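 Note: cells exposed to compound about 14 hours before the viability readout.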 The assay is classed as functional, cell-based.
For assay [23], the system named is INS1. The experiment in a line: beta cell apoptosis inhibitors, cytokine rescue, dose response, luminescence, retest (AID 449756).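 Note: cell death triggered by IL-1 beta plus TNF-alpha plus IFN-gamma mixture; protective hits raise ATP signal compared with cytokine alone wells.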 The assay is classed as functional, cell-based. Particulars: Rattus norvegicus.
In assay [24] the test system is BJ. The experiment in a line: cytotoxicity toward BJ-TERT fibroblasts, dose response, cell-based, RAS-independent, luminescence (AID 1933). The assay is classed as functional. Particulars: Homo sapiens.
Assay [25] can be described thus: Luminescence Cell-Based Dose Response HTS to Identify Inhibitors of 5'UTR Stem-Loop Driven Prion Protein mRNA Translation in H4 Neuroglioblastoma Cells. [Related pubchem assays: 1827 (Project Summary), 1813 (Primary HTS)]. The assay is classed as functional.
Assay [26] addresses Heat shock protein HSP 90-alpha (Homo sapiens, UniProt P07900). The class given is functional, organism-based.
Assay [27] in a line: inhibitors of SNCA 5'UTR-driven reporter translation, confirmation, H4 neuroglioma cells, luminescence (AID 1988). The class given is functional, cell-based.
The subject of assay [28] is BJ. The experiment in a line: cells. The assay is classed as functional, cell-based. Particulars: Homo sapiens.
Assay [29] addresses Large T antigen (Simian virus 40, UniProt P03070). The class given is functional, Betapolyomavirus macacae.
In assay [30] the test system is BJ. The experiment in a line: cytotoxicity toward BJ-TERT-LT-ST fibroblasts, dose response, cell-based, RAS-independent, luminescence (AID 1935).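 Note: BJ fibroblasts immortalized with TERT plus LT and ST oncogenes.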 Particulars: Homo sapiens. The assay is classed as functional.
The nature of assay [31]: inhibitors of firefly luciferase expression or activity, dose response, H4 neuroglioma cells, luminescence (AID 1990). The assay is classed as functional, cell-based.

Sequence of Intestinal-type alkaline phosphatase (Homo sapiens, UniProt P09923) (P09923 whole entry): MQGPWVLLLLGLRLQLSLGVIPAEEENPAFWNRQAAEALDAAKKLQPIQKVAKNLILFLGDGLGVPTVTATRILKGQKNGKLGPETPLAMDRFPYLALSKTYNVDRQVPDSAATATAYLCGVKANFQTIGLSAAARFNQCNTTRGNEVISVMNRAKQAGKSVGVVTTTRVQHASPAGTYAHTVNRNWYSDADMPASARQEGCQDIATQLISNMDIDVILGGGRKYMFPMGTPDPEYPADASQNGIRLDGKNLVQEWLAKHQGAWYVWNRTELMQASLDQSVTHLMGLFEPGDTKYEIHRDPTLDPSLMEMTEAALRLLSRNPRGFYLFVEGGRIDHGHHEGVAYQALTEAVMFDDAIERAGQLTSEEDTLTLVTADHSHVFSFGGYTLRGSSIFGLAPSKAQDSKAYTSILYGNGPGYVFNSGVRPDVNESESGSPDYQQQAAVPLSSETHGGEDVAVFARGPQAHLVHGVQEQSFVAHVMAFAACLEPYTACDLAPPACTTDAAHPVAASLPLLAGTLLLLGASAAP
Sequence of Intestinal-type alkaline phosphatase (Mus musculus, UniProt P24822) (P24822 whole entry): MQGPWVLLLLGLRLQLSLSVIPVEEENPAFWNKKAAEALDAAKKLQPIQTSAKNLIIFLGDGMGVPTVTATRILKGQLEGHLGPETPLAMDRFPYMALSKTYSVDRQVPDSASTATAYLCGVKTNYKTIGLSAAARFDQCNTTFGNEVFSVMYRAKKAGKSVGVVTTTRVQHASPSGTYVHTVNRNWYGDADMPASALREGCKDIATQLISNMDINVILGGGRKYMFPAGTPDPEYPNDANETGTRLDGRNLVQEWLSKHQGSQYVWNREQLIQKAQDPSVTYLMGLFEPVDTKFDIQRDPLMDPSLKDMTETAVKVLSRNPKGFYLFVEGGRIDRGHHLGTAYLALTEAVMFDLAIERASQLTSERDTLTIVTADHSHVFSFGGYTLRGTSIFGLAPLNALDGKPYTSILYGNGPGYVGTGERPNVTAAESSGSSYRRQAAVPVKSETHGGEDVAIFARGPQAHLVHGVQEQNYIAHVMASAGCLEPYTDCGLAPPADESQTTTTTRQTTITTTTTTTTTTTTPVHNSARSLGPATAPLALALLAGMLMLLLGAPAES
Sequence of Paired box protein Pax-8 (Q06710 whole entry): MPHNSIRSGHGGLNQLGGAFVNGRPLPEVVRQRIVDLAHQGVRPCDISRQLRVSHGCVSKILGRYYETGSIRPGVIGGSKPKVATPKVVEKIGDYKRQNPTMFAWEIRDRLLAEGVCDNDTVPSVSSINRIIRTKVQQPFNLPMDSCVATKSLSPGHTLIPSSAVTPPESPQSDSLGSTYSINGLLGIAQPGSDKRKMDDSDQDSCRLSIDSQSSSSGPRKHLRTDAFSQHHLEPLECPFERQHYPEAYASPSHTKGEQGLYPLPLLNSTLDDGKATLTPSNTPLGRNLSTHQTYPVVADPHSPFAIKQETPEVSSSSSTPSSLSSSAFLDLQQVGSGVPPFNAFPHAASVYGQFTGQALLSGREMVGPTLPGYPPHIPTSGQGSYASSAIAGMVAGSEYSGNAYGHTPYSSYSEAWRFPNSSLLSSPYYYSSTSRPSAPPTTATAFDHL
Sequence of Glucose-6-phosphate 1-dehydrogenase (P11413 whole entry): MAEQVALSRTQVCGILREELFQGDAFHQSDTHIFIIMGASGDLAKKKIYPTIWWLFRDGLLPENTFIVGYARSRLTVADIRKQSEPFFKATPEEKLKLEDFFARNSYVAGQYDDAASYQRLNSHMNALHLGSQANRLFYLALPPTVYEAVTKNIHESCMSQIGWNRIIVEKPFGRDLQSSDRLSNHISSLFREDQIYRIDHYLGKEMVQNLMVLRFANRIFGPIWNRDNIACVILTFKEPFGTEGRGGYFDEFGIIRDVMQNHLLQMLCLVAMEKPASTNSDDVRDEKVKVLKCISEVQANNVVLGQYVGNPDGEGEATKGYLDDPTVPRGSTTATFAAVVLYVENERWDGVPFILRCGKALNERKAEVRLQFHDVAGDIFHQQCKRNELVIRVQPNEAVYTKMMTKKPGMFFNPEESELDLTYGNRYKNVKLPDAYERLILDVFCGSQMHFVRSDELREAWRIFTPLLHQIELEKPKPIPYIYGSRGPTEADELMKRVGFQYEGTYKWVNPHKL
Sequence of Large T antigen (P03070 whole entry): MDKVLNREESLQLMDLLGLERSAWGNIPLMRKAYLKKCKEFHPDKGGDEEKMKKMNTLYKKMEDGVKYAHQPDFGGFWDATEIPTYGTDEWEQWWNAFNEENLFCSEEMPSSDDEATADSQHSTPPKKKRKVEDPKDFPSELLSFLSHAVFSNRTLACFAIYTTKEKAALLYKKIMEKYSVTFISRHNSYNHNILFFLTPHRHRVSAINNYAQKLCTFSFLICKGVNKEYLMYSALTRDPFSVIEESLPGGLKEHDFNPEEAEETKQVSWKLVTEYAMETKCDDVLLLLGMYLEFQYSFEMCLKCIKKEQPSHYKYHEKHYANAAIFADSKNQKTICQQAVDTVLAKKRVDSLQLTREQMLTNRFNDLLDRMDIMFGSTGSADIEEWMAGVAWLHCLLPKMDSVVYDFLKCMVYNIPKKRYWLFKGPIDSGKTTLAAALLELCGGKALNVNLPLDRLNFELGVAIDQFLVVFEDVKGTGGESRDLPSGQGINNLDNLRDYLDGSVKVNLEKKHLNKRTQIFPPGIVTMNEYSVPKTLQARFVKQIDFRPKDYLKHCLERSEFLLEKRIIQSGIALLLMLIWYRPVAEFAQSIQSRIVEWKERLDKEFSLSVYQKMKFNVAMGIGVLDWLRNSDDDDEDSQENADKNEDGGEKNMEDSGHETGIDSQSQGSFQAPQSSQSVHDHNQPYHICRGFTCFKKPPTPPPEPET
Sequence of Peroxisome proliferator-activated receptor gamma/Nuclear receptor coactivator 3 (P37231 whole entry): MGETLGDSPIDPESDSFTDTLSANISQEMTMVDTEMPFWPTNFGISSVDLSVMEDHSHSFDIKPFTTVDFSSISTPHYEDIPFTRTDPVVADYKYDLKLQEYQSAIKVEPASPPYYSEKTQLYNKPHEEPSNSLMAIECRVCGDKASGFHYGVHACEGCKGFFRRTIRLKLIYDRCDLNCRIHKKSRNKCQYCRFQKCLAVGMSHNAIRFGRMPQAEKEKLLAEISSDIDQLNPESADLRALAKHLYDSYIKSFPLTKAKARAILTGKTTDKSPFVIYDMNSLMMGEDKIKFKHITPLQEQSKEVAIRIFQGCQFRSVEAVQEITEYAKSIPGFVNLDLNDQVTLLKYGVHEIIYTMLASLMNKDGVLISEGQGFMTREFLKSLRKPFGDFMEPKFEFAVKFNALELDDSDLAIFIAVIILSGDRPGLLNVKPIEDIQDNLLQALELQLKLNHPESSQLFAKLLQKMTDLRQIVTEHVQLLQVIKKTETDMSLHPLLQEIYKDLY
Sequence of Peroxisome proliferator-activated receptor gamma/Nuclear receptor coactivator 3 (Q9Y6Q9 whole entry, further chain): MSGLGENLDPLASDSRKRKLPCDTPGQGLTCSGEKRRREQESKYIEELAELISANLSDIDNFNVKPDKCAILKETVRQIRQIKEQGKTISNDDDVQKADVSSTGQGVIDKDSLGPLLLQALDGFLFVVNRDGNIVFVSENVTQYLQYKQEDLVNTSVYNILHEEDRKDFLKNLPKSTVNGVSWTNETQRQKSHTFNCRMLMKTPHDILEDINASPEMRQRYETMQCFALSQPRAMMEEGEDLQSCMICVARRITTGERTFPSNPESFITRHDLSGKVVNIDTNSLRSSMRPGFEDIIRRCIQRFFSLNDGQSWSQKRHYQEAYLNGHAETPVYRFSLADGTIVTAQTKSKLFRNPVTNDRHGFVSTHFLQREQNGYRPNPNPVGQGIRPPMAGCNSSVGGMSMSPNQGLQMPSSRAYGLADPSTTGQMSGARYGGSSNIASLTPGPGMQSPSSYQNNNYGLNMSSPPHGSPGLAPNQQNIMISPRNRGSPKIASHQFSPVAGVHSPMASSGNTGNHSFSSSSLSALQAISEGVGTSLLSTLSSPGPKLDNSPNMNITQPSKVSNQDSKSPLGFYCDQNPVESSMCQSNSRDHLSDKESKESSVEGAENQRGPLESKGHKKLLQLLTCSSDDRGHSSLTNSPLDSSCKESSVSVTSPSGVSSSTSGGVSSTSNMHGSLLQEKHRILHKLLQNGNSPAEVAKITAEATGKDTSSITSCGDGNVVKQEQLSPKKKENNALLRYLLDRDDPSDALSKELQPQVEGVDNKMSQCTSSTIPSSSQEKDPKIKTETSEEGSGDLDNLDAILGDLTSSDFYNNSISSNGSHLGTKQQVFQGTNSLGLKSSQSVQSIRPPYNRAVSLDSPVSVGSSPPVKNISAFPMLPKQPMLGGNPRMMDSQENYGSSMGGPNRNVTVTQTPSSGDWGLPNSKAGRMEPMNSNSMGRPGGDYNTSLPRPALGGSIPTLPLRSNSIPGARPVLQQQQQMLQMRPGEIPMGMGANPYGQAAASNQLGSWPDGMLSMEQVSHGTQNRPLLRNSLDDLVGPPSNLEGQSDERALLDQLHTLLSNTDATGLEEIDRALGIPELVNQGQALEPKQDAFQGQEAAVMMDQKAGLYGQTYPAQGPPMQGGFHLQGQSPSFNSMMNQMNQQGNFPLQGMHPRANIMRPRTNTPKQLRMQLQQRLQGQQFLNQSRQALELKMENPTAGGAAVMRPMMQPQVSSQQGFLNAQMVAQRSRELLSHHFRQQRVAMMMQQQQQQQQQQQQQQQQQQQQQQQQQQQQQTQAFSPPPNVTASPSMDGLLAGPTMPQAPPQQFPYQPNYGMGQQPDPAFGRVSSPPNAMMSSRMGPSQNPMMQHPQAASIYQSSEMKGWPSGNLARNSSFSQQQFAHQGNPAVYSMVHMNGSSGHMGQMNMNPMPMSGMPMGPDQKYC

Turning to `O=S(=O)(c1ccc2nc(O)oc2c1)N1CCCCC1`, the IC50 in assay [1] was 36.5 µM (active); in assay [2], > 100 µM (inactive); in assay [3], 1.67 µM (active).
Consider `O=c1c(Br)c(Br)cnn1-c1ccccc1`, for which the EC50 in assay [4] is > 79.4 µM (inactive); in assay [8], > 79.4 µM (not active); in assay [10], > 79.4 µM (not active). Also, the AC50 in [5] was 14.8 µM (active); in [6], 25.4 µM (active); in assay [9], 2.75 µM (active); in [11], 1.82 µM (active); in [12], 8.26 µM (active). For the same molecule, the CC50 in [7] is > 11 µM (not active).
With `COc1ccc(C(CCNC(C)c2ccccc2)c2ccc(F)cc2)cc1` (configuration not stated), the AC50 in assay [13] is 16.6 µM (active); in [16] it was 13.8 µM (active). Further, the EC50 was 11.2 µM (active) in assay [14] and 9.11 µM (active) in [15].
In the case of `Cc1ccc(CN=C(S)NC2CCC(C(C)(C)C)CC2)cc1` (configuration not stated), the half-maximal inhibitory concentration (IC50) in assay [1] was 48 µM (active); in assay [2] it was > 100 µM (inactive); in assay [3] it was 2.35 µM (active). Further, the concentration for a half-maximal effect (EC50) in assay [17] was 5.46 µM (active); in assay [18], 13.1 µM (active); in assay [19] it was > 150 µM (not active).
As for `COc1cc(/C=C/C(=O)c2ccc([N+](=O)[O-])o2)ccc1O`, the half-maximal effective concentration (EC50) in [20] was 2.04 µM (inconclusive); in [17] it was 3.09 µM (active); in [18], 12.8 µM (active); in [24], > 150 µM (not active); in [25], 7.59 µM (active); in assay [27], 8.16 µM (active). In addition, the EC50 in [28] was > 150 µM (inconclusive); in assay [30] it was 1.09 µM (inconclusive); in assay [19] it was 11.8 µM (active); in assay [31], > 30 µM (not active). Moreover, the IC50 was 60.4 µM (inactive) in [21], 28.5 µM (inactive) in assay [22] and 8.65 µM (active) in assay [29]. Also, the results for the concentration at half-maximal activity (AC50) in [23] and in assay [26] were 2.68 µM (active) and 4.28 µM (active), respectively.
